Measured values from ChEMBL document CHEMBL1151534, “UK-73,093: A non-peptide neurotensin receptor antagonist” (Bioorg Med Chem Lett, 1992).
Active and inactive are the calls of the source. No cut-off for these calls is given here.

What was measured:
Rattus norvegicus [1] = experiment: Compound was tested for the inhibition of NT-induced hyperlocomotion at a dose of 120 mg/kg (ip); SI - Significant inhibition; assay type: functional, organism-based; parameters: dose 120 mg/kg
Rattus norvegicus [2] = experiment: Compound was tested for the inhibition of NT-induced hyperlocomotion at a dose of 40 mg/kg (ip); NS - No significant inhibition; assay type: functional, organism-based; parameters: dose 40 mg/kg
[3] = target: Neurotensin receptor type 1 (Mus musculus, UniProt O88319); experiment: Inhibitory concentration required for the displacement of [3H]NT from neurotensin receptor in mouse; value ranges from 4-6 uM
Chain of Neurotensin receptor type 1 (Mus musculus, UniProt O88319) (O88319 whole entry): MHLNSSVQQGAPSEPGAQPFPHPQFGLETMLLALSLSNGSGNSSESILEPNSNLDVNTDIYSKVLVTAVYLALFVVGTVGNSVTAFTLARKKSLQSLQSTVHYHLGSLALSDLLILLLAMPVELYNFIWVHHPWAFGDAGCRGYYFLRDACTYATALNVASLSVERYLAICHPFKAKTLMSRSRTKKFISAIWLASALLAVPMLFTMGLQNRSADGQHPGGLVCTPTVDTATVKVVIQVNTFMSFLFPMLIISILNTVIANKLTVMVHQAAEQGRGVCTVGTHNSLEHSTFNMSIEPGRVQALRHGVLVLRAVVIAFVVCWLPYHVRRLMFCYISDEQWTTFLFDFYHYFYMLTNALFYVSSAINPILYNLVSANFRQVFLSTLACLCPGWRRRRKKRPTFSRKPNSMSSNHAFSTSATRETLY

[4] = target: Neurotensin receptor type 1 (Rattus norvegicus, UniProt P20789); experiment: Inhibitory concentration required for the displacement of [3H]NT from neurotensin receptor in rat
Chain of Neurotensin receptor type 1 (Rattus norvegicus, UniProt P20789) (P20789 whole entry): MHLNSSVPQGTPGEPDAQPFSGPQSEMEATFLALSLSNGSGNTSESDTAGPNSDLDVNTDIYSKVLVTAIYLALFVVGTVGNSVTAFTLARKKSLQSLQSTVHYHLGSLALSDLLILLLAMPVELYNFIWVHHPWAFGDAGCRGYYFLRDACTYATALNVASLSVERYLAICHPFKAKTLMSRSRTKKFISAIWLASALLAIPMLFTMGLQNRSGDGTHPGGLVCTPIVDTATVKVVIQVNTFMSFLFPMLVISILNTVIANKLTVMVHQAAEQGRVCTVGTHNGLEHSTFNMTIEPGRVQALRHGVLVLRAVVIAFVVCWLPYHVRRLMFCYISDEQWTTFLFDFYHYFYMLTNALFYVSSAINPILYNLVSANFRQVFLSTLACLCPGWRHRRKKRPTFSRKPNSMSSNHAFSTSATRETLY

[5] = target: Neurotensin receptor (Homo sapiens) (UniProt O95665+P30989); experiment: Inhibitory concentration required for the displacement of [3H]-NT from neurotensin receptor on human frontal cortex at conc. of 100 uM; NA - No activity; assay type: tissue-based
Chain of Neurotensin receptor (Homo sapiens) (O95665 whole entry, looked up): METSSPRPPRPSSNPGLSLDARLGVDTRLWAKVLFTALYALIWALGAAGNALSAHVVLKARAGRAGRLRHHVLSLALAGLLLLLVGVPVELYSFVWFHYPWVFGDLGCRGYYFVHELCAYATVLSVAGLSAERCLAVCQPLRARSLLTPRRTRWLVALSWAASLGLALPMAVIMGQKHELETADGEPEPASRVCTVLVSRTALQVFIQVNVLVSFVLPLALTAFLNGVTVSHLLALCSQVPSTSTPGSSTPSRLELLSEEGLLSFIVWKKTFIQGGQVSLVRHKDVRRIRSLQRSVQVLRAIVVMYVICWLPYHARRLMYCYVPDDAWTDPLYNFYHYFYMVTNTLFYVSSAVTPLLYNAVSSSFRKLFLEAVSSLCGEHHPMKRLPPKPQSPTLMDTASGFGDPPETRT
Chain of Neurotensin receptor (Homo sapiens) (P30989 whole entry, looked up): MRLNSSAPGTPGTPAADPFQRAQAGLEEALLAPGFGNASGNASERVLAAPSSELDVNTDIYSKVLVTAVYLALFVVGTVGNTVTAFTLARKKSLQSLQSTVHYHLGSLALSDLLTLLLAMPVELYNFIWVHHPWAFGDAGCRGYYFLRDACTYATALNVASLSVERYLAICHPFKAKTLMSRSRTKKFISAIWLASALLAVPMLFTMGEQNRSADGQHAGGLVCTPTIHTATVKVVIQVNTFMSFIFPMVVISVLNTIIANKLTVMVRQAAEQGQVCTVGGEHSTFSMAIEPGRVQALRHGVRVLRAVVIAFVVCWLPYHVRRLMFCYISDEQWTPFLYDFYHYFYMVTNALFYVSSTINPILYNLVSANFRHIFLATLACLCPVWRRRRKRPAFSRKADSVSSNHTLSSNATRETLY

N1E-115 [6] = experiment: Evaluated for its antagonistic activity against the NT-stimulated cyclic [3H]GMP formation in murine N1E-115 neuroblastoma cells; assay type: functional, cell-based, Mus musculus
[7] = Compound was evaluated for its ability to displace [3H]NT from the neurotensin receptor of bovine brain
N1E-115 [8] = experiment: Evaluated for the cyclic [3H]GMP formation in murine N1E-115 neuroblastoma cells in absence of neurotensin at conc. of 32 uM; NS - No significant activity; assay type: functional, cell-based; details: Mus musculus
Rattus norvegicus [9] = experiment: Compound was tested for the inhibition of NT-induced hyperlocomotion at a dose of 80 mg/kg (ip); SI - Significant inhibition; assay type: functional, organism-based; parameters: dose 80 mg/kg

IC50 [3]: 6 µM | IC50 [4]: 49 µM | inhibition [5]: inactive | IC50 [7]: 5.5 µM
Compound: Cc1ccc(S(=O)(=O)NCCNC2(c3ccccc3)OC(=O)c3ccccc32)cc1 (centres undefined)
inhibition (Rattus norvegicus [1]): Active | inhibition (Rattus norvegicus [2]): inactive | Ki (N1E-115 [6]): 4.4 µM | Activity (N1E-115 [8]): inactive | inhibition (Rattus norvegicus [9]): Active
